Results published in patent US20230053342A1, “IMIDAZOLIDINONE COMPOUND, PREPARATION METHOD THEREFOR AND USE THEREOF” (BETTA PHARMACEUTICALS CO., LTD, priority 2019, published 2023).

How the values were obtained:
[1] = target: PI3Kα (Homo sapiens, UniProt P42336); test: Kinase experiment (ADP-Glo, luminescence), PI3Kα; type: biochemical; settings: final concentration of ATP 10 μM; read-out: IC50 of compound to PI3K (nM) α
Procedure: (§1) PI3Kα, PI3Kβ, PI3Kγ kinases undergo enzymatic reactions with their substrates ATP and PIP2:3PS, the amount of the product detected by ADP-Glo agent and luminescence method were used to reflect the enzymatic activities of PI3Kα, PI3Kβ, PI3Kγ (the final concentration of ATP is 10 μM). The above methods were used to test the inhibitory activity of certain compound of the present invention on PI3Kα, PI3Kβ and PI3Kγ kinase.
(§2) Agent: Basic kinase buffer (pH 7.5); PI3Kα, PI3Kβ, PI3Kγ kinase solutions; PIP2:3PS and ATP solutions; ADP-Glo kit (containing 10 mM MgCl2).
(§3) Wherein, the buffer composition: 50 mM Hepes (pH 7.2-7.5), 3 mM MgCl2, 1 mM EGTA, 0.03% CHAPS, 100 mM NaCl, 2 mM DTT; • Compound preparation: The tested compound was diluted to a specific concentration with 100% DMSO. • Process: 1) PI3Kα, PI3Kβ, or PI3Kγ protein solution were dispensed to a 384-well assay plate (6008280, PerkinElmer), and centrifuged at 1000 rpm for 1 minute. • 2) Tested compound, negative control DMSO or positive control BYL719 was dispensed to the above-mentioned 384-well assay plate with the kinase, centrifuged at 1000 rpm for 1 min, and incubated at 25° C. for 15 mins. • 3) PIP2:3PS&ATP solution was added to the above-mentioned 384-well assay plate, centrifuged at 1000 rpm for 1 min, incubated at 25° C. for 60 mins. • 4) 5 μL of ADP-Glo agent (10 mM MgCl2 contained) was transferred to the 384-well assay plate, centrifuged at 1000 rpm for 1 min, incubated at 25° C. for 40 mins. • 5) 10 μL of Detection agent was transferred to the 384-well assay plate, centrifuged at 1000 rpm for 1 min, incubated at 25° C. for 40 mins. • 6) RLU (Relative luminescence unit) value was measured by Envision multifunctional plate reader. The RLU value was used to characterize the degree of reaction between the enzyme and the substrate, and calculate the IC50 value. • 7) Data analysis:
(§4) Compound inhibition rate(% inh)=(negative control RLU-tested compound RLU)/(negative control RLU-positive control RLU)*100%
(§5) The IC50 (half inhibitory concentration) of the compound was obtained using the following nonlinear fitting formula:
(§6) Y=minimum inhibition rate+(max inhibition rate-minimum inhibition rate)/(1+10^((Log IC50−X)*slope)); wherein, X is the log value of the concentration of the tested compound, Y is the inhibition rate of tested compound(% inh).

[2] = target: PI3Kβ (Homo sapiens, UniProt P42338); test: Kinase experiment (ADP-Glo, luminescence), PI3Kβ; type: biochemical; settings: final concentration of ATP 10 μM; read-out: IC50 of compound to PI3K (nM) β
Chain of PI3Kβ (P42338 whole entry): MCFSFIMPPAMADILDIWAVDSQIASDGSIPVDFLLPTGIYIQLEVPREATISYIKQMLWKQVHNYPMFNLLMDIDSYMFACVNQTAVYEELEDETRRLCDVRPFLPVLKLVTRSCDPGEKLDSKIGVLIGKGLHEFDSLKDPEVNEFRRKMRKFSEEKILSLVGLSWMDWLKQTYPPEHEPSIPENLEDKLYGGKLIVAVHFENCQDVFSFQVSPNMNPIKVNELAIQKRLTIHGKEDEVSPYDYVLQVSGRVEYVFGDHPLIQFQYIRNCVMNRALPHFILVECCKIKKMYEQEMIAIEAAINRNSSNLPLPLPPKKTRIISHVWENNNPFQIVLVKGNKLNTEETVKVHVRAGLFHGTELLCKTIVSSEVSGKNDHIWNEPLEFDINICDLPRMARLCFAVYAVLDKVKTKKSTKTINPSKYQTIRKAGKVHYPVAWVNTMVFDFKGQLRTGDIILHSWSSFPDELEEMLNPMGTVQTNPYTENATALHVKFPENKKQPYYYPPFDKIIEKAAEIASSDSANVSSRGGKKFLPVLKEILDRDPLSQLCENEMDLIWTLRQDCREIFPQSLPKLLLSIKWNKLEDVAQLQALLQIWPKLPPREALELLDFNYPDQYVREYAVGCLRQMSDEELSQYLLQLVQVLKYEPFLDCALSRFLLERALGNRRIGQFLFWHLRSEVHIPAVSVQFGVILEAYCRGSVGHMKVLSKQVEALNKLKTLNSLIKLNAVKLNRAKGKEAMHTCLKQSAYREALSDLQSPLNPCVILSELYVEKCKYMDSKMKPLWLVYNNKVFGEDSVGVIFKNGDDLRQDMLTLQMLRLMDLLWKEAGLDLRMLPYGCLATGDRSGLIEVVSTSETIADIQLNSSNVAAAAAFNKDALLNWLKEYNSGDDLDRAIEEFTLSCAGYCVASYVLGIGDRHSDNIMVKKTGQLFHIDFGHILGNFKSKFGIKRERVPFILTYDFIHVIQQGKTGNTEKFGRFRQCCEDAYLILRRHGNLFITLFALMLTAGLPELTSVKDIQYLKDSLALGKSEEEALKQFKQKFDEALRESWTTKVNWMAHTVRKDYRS
Chain of PI3Kβ (P27986 whole entry partner): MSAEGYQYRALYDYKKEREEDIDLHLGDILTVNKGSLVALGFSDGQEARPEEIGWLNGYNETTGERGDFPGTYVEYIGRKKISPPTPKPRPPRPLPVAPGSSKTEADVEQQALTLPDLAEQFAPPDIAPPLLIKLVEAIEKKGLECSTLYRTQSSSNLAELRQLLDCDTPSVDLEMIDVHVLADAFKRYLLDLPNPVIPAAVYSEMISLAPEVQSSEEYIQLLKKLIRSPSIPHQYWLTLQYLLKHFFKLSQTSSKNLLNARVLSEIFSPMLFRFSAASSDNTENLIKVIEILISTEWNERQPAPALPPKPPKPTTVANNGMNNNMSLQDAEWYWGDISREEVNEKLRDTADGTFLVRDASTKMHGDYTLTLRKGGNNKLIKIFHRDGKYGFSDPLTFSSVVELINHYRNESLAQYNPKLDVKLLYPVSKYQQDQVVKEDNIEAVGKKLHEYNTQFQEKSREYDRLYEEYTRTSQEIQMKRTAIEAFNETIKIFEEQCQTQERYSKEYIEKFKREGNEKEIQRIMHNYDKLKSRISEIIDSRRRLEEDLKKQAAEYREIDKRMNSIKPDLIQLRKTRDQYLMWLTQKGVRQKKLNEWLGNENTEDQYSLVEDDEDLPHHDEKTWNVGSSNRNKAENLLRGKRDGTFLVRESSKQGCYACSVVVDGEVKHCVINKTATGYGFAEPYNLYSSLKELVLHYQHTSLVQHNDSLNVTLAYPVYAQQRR
Procedure: as §1, §2, §3, §4, §5, §6

[3] = target: PI3Kγ (Homo sapiens, UniProt P48736); test: Kinase experiment (ADP-Glo, luminescence), PI3Kγ; type: biochemical; settings: final concentration of ATP 10 μM; read-out: IC50 of compound to PI3K (nM) γ
Chain of PI3Kγ (P48736 whole entry): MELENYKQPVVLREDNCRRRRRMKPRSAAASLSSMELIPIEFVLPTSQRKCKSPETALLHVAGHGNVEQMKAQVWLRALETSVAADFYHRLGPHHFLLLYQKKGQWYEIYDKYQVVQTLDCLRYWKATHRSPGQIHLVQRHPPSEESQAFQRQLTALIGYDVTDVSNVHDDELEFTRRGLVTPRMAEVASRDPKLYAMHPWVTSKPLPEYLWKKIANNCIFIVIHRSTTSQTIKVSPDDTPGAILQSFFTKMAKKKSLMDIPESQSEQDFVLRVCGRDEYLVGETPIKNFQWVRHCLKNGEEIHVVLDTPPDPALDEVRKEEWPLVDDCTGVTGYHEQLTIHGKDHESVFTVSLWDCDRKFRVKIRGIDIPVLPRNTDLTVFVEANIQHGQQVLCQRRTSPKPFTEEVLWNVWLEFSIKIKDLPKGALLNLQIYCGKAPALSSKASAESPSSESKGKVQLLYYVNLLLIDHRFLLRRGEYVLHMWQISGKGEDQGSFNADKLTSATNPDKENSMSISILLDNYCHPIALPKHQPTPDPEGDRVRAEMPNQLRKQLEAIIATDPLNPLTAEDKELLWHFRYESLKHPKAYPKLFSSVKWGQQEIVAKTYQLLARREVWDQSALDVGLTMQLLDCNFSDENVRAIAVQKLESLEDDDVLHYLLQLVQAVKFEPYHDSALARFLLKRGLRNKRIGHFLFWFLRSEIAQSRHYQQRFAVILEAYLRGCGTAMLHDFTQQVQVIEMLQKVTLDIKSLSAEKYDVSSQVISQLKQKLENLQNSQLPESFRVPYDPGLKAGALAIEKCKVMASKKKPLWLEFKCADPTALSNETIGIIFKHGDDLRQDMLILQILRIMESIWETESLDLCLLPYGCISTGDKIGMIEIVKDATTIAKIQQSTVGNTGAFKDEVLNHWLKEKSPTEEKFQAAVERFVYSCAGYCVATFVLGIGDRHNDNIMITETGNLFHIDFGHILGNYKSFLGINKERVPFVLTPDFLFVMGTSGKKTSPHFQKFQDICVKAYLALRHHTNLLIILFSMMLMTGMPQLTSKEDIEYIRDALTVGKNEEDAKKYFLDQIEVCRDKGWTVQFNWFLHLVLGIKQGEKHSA
Procedure: as §1, §2, §3, §4, §5, §6

[4] = test system: human tumor cells MCF-7; test: Cell proliferation assay (CellTiter Glo), MCF-7; type: cell-based; settings: MCF7, MCF-7 cells incubated for 120 h, read-out: IC50(μM) of compound on MCF cell
Procedure: (§7) Method: The anti-proliferative effects on human tumor cells MCF-7 and HGC27 of certain compounds of the present invention were evaluated by CellTiter Glo assay.
(§8) Detection method: MCF-7 cells were suspended in DMEM culture medium, the cell concentration of which was adjusted to 25000 cells/mL; HGC27 cells were suspended in RPMI-1640 culture medium, the cell concentration of which was adjusted to 5000 cells/mL. 100 μL of cell suspension was dispensed to a 96-well assay plate and placed in a CO2 incubator overnight. The tested compounds were dissolved in DMSO, and 3-fold derail dilution was performed to obtain 10-point concentrations. the 10-point concentrations of the tested compounds or or negative control was transferred to the well containing 100 μL of culture medium respectively, incubated at 37° C., 5% CO2, the HGC27 cells were incubated for 96 h, MCF-7 cells were incubated for 120 h. Then 100 μL of CellTiter-Glo agent was added to the above-mentioned 96-well assay plate, incubated at room temperature for 10 minutes to allow stable luminescence signal. VICTOR™ X5 instrument was used to record RLU (relative luminescence unit), and then calculate the IC50 values were calculated.
(§9) Compound inhibition rate(% inh)=100% −(tested compound RLU-blank control RLU)/(negative control RLU-blank control RLU)*100%
(§10) Blank control: blank culture medium, with no compound or cell;
as §5
(§11) Y=minimum inhibition rate+(max inhibition rate-minimum inhibition rate)/(1+10^((Log IC50−X)*slope)); wherein, X: the log value of the concentration of the tested compound; Y: the inhibition rate of the tested compound(% inh).

[5] = test system: human tumor cells HGC27; test: Cell proliferation assay (CellTiter Glo), HGC27; type: cell-based; settings: HGC-27, HGC27 cells incubated for 96 h, read-out: IC50(μM) of ompound on HGC-27cell
Procedure: as §7, §8, §9, §10, §5, §11

[6] = Pharmacokinetic test in male SD rats; type: in vivo; settings: rat, plasma
Procedure: Method: 42 male SD rats, weight: 150-300 g. Divided into 7 groups randomly, with 6 rats in each group. Among the 6 rats in each group, three of them were administrated a single intravenous injection of […] of the example compound, the other three were given intragastric administration of […] of the example compound, blood was collected from the orbital venous plexus at designated time points, plasma was separated, and stored in a −80° C. refrigerator for later use.
The protein of the resultant plasma was precipitated by acetonitrile, the supernatant was extracted, and mixed with water at the ratio of 1:1, took 10 μL of which for LC-MS/MS detection, and calculated the average was calculated.

Chain of PI3Kα (P42336 whole entry): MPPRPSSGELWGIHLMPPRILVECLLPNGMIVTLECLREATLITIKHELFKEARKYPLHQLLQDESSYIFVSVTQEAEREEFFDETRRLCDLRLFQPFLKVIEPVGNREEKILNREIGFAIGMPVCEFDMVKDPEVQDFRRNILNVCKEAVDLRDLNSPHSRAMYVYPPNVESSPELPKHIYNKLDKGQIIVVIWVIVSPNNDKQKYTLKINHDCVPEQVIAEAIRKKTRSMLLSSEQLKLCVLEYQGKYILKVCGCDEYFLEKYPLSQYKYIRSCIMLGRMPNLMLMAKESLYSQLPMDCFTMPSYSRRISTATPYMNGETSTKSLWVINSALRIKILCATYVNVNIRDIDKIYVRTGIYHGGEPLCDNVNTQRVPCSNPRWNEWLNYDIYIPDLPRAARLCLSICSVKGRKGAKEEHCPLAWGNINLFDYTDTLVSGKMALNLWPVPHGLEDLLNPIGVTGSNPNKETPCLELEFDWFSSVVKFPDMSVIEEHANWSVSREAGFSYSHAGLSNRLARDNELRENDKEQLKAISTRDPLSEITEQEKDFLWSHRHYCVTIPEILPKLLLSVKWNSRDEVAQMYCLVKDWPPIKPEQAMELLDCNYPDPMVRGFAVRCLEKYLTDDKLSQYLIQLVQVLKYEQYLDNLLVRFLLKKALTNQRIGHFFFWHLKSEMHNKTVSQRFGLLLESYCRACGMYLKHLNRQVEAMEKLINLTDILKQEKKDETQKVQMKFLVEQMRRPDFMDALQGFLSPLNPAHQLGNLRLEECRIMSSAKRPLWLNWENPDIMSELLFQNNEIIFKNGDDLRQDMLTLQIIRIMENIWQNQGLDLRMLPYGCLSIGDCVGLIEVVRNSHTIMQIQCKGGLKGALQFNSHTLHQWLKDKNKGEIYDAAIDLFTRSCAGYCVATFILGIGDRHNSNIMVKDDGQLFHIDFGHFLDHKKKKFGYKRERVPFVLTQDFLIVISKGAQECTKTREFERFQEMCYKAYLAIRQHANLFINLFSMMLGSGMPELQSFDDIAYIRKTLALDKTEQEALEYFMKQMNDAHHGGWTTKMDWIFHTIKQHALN
Chain of PI3Kα (P27986 whole entry partner): as the sequence (P27986 whole entry partner) above

SMILES: CC(C)C1C(=O)N(C2CC2)C(=O)N1c1cn2c(n1)-c1ccc(N3CCC[C@H]3C(N)=O)cc1OCC2 (stereo partly drawn) [Example 2, (2S)-1-(2-(3-cyclopropyl-5-isopropyl-2,4-dioxoimidazolidin-1-yl)-5,6-dihydrobenzo[f]imidazo[1,2-d][1,4]oxazepin-9-yl)pyrrolidine-2-carboxamide]
- IC50 [1]: < 5 nM
- IC50 [2]: > 600 nM
- IC50 [3]: 300 to 600 nM
- IC50 [4]: 0.07 µM
- IC50 [5]: 0.361 µM
- clearance ([6]; intravenous injection, 2 mg/kg): 1.98 mL/min/kg
- AUC ([6]; po, gavage, 10 mg/kg): 53000 ng·h/mL
- Cmax ([6]; po, gavage, 10 mg/kg): 4340 ng/mL
